Results published in article PMC6522510 (Nature Communications, 2019).
Structures can show the parent of a compound that is named as a salt. Where two headings read alike, the source gives them in different places.

Key:
Design in all cases: species or system AML cell lines (8); Primary HTS, single concentration about 10 uM, Cell Titer Glo viability; log10 luminescence, per cent inhibition relative to cycloheximide control
Conditions in all cases: 72 h, relative to cycloheximide control, log10 luminescence, inhibitor
U937 = test system: U937
CMK = test system: CMK
ML-2 = test system: ML-2
CHRF288-11 = test system: CHRF288-11
MOLM-13 = test system: MOLM-13
CMS = test system: CMS
MV4-11 = test system: MV4-11
M07e = test system: M07e

C=CC[C@@H]1[C@H](O)CC[C@@]2(C)[C@H]1CC[C@@H]1[C@@H]2CC[C@]2(C)[C@@H]([C@H](C)CCCC(C)C)CC[C@@H]12 [SJ000561065-1, LY 295427]
U937 %inh (U937): 1.28%
CMK %inh (CMK): -3.189%
ML-2 %inh (ML-2): 0.971%
CHRF288-11 %inh (CHRF288-11): -1.753%
MOLM-13 %inh (MOLM-13): 1.105%
CMS %inh (CMS): -1.154%
MV4-11 %inh (MV4-11): 0.6492%
M07e %inh (M07e): 2.452%

CC(C)=CCC/C(C)=C/CC/C(C)=C/CC/C(C)=C/CO [SJ000561066-1, GERANYLGERANIOL]
U937 %inh (U937): 2.958%
CMK %inh (CMK): -0.4924%
ML-2 %inh (ML-2): 1.709%
CHRF288-11 %inh (CHRF288-11): 0.138%
MOLM-13 %inh (MOLM-13): -0.5636%
CMS %inh (CMS): 3.121%
MV4-11 %inh (MV4-11): 1.567%
M07e %inh (M07e): 0.9105%

CC1=C(/C=C/C(C)=C/C=C/C(C)=C/C(=O)O)C(C)(C)CCC1O (centres unmarked) [SJ000561070-1, 4-HYDROXYRETINOIC ACID]
U937 %inh (U937): 18.11%
CMK %inh (CMK): 1.361%
ML-2 %inh (ML-2): 5.11%
CHRF288-11 %inh (CHRF288-11): -3.112%
MOLM-13 %inh (MOLM-13): 7.362%
CMS %inh (CMS): 38.35%
MV4-11 %inh (MV4-11): 34.76%
M07e %inh (M07e): 7.941%

CCC1(CC)C(=O)NC(=O)N(C)C1=O [SJ000562691-1, METHARBITAL]
U937 %inh (U937): -1.698%
CMK %inh (CMK): -5.926%
ML-2 %inh (ML-2): -0.4535%
CHRF288-11 %inh (CHRF288-11): 3.211%
MOLM-13 %inh (MOLM-13): -1.73%
CMS %inh (CMS): -4.139%
MV4-11 %inh (MV4-11): 0.7749%
M07e %inh (M07e): -1.141%

N=C1NC(=O)N2CC12 (centres unmarked) [SJ000564440-1, IMEXON]
U937 %inh (U937): 11.23%
CMK %inh (CMK): -0.6297%
ML-2 %inh (ML-2): 2.993%
CHRF288-11 %inh (CHRF288-11): 28.3%
MOLM-13 %inh (MOLM-13): 4.482%
CMS %inh (CMS): 13.09%
MV4-11 %inh (MV4-11): 2.121%
M07e %inh (M07e): 3.11%

CC(C)C(=O)OCC(=O)[C@@]12O[C@H](C3CCCCC3)O[C@@H]1C[C@H]1[C@@H]3CCC4=CC(=O)C=C[C@]4(C)[C@H]3[C@@H](O)C[C@@]12C [SJ000565158-1, CICLESONIDE]
U937 %inh (U937; U937 %inh, 10 µM): -2.58%
CMK %inh (CMK; CMK %inh, 10 µM): 2.034%
ML-2 %inh (ML-2; ML-2 %inh, 10 µM): -1.054%
CHRF288-11 %inh (CHRF288-11; CHRF288-11 %inh, 10 µM): 0.4753%
MOLM-13 %inh (MOLM-13; MOLM-13 %inh, 10 µM): 4.252%
CMS %inh (CMS; CMS %inh, 10 µM): -0.07433%
MV4-11 %inh (MV4-11; MV4-11 %inh, 10 µM): -5.442%
M07e %inh (M07e; M07e %inh, 10 µM): -1.566%

CC(C)C(=O)OCC(=O)[C@@]12O[C@H](C3CCCCC3)O[C@@H]1C[C@H]1[C@@H]3CCC4=CC(=O)C=C[C@]4(C)[C@H]3[C@@H](O)C[C@@]12C [SJ000565158-2, CICLESONIDE]
U937 %inh (U937; U937 %inh, 10 µM): 6.134%
CMK %inh (CMK; CMK %inh, 10 µM): 0.8609%
ML-2 %inh (ML-2; ML-2 %inh, 10 µM): -2.112%
CHRF288-11 %inh (CHRF288-11; CHRF288-11 %inh, 10 µM): 3.888%
MOLM-13 %inh (MOLM-13; MOLM-13 %inh, 10 µM): -0.3458%
CMS %inh (CMS; CMS %inh, 10 µM): 2.27%
MV4-11 %inh (MV4-11; MV4-11 %inh, 10 µM): -3.886%
M07e %inh (M07e; M07e %inh, 10 µM): 1.744%

CC(C)Nc1cccnc1N1CCN(C(=O)c2cc3cc(NS(C)(=O)=O)ccc3[nH]2)CC1 [SJ000565159-1, DELAVIRDINE MESYLATE]
U937 %inh (U937): 0.4896%
CMK %inh (CMK): -2.785%
ML-2 %inh (ML-2): -1.959%
CHRF288-11 %inh (CHRF288-11): -4.194%
MOLM-13 %inh (MOLM-13): 5.504%
CMS %inh (CMS): -2.71%
MV4-11 %inh (MV4-11): 1.25%
M07e %inh (M07e): -1.136%

O=C(O[C@@H]1C[C@@H]2C[C@H]3C[C@H](C1)N2CC3=O)c1c[nH]c2ccccc12 [SJ000565162-1, DOLASETRON MESYLATE]
U937 %inh (U937): -1.048%
CMK %inh (CMK): 0.6983%
ML-2 %inh (ML-2): 0.9019%
CHRF288-11 %inh (CHRF288-11): -2.852%
MOLM-13 %inh (MOLM-13): 27.78%
CMS %inh (CMS): -2.789%
MV4-11 %inh (MV4-11): -0.3278%
M07e %inh (M07e): 0.4101%

Cc1ccccc1N1CCN(CCc2nnc3n2CCCC3)CC1 [SJ000565164-1, DAPIPRAZOLE HYDROCHLORIDE]
U937 %inh (U937; U937 %inh, 10 µM): -2.961%
CMK %inh (CMK; CMK %inh, 10 µM): -9.616%
ML-2 %inh (ML-2; ML-2 %inh, 10 µM): 2.518%
CHRF288-11 %inh (CHRF288-11; CHRF288-11 %inh, 10 µM): 8.203%
MOLM-13 %inh (MOLM-13; MOLM-13 %inh, 10 µM): 25.76%
CMS %inh (CMS; CMS %inh, 10 µM): -1.478%
MV4-11 %inh (MV4-11; MV4-11 %inh, 10 µM): -2.751%
M07e %inh (M07e; M07e %inh, 10 µM): -1.247%

Cc1ccccc1N1CCN(CCc2nnc3n2CCCC3)CC1 [SJ000565164-2, DAPIPRAZOLE HYDROCHLORIDE]
U937 %inh (U937; U937 %inh, 10 µM): -1.057%
CMK %inh (CMK; CMK %inh, 10 µM): -2.237%
ML-2 %inh (ML-2; ML-2 %inh, 10 µM): 1.742%
CHRF288-11 %inh (CHRF288-11; CHRF288-11 %inh, 10 µM): 1.908%
MOLM-13 %inh (MOLM-13; MOLM-13 %inh, 10 µM): 3.696%
CMS %inh (CMS; CMS %inh, 10 µM): -0.5071%
MV4-11 %inh (MV4-11; MV4-11 %inh, 10 µM): 0.3008%
M07e %inh (M07e; M07e %inh, 10 µM): 0.4169%

CCCCC[C@](C)(O)/C=C/[C@@H]1[C@@H](C/C=C\CCCC(=O)O)[C@@H](O)C[C@H]1O [SJ000565165-1, CARBOPROST TROMETHAMINE]
U937 %inh (U937): -1.422%
CMK %inh (CMK): -7.865%
ML-2 %inh (ML-2): 2.687%
CHRF288-11 %inh (CHRF288-11): 21.89%
MOLM-13 %inh (MOLM-13): 2.726%
CMS %inh (CMS): 2.5%
MV4-11 %inh (MV4-11): 1.156%
M07e %inh (M07e): -0.103%

CCN(CC)CCOC(=O)c1ccc(N)cc1Cl [SJ000565166-1, CHLOROPROCAINE HYDROCHLORIDE]
U937 %inh (U937): -1.434%
CMK %inh (CMK): -4.183%
ML-2 %inh (ML-2): 1.664%
CHRF288-11 %inh (CHRF288-11): 2.414%
MOLM-13 %inh (MOLM-13): 5.209%
CMS %inh (CMS): -2.449%
MV4-11 %inh (MV4-11): 1.062%
M07e %inh (M07e): -0.3142%

CCCCCCCCCCCCCCCCCCCCCCO [SJ000565168-1, 1-DOCOSANOL (BEHENYL ALCOHOL)]
U937 %inh (U937): -0.3827%
CMK %inh (CMK): -5.554%
ML-2 %inh (ML-2): -0.3569%
CHRF288-11 %inh (CHRF288-11): 5.263%
MOLM-13 %inh (MOLM-13): -4.024%
CMS %inh (CMS): -0.803%
MV4-11 %inh (MV4-11): -0.7251%
M07e %inh (M07e): 3.056%

CO/N=C(\C(=O)N[C@@H]1C(=O)N2C(C(=O)O)=CCS[C@H]12)c1csc(N)n1 [SJ000565169-1, CEFTIZOXIME SODIUM]
U937 %inh (U937): -0.2552%
CMK %inh (CMK): -4.179%
ML-2 %inh (ML-2): -0.7534%
CHRF288-11 %inh (CHRF288-11): -3.529%
MOLM-13 %inh (MOLM-13): -3.581%
CMS %inh (CMS): -3.365%
MV4-11 %inh (MV4-11): -0.08777%
M07e %inh (M07e): 1.196%

CC1(C)O[C@@H]2C[C@H]3[C@@H]4CCC5=CC(=O)C=C[C@]5(C)[C@H]4[C@@H](O)C[C@]3(C)[C@]2(C(=O)CO)O1 [SJ000565170-1, DESONIDE]
U937 %inh (U937): 6.18%
CMK %inh (CMK): 3.484%
ML-2 %inh (ML-2): -0.7887%
CHRF288-11 %inh (CHRF288-11): 6.238%
MOLM-13 %inh (MOLM-13): 5.492%
CMS %inh (CMS): 1.425%
MV4-11 %inh (MV4-11): 0.7481%
M07e %inh (M07e): 8.441%
